Where “and” joins values, the source holds several entries; their conditions need not be identical. Equal values may be shown once.
How the values were obtained:
[1] = biological target: T1, A disintegrin and metalloproteinase with thrombospondin motifs 4 (Homo sapiens, UniProt O75173); test: In Vitro Fluorescence Assay of ADAMTS-4 or ADAMTS-5 Activity
T1 sequence (O75173 whole entry): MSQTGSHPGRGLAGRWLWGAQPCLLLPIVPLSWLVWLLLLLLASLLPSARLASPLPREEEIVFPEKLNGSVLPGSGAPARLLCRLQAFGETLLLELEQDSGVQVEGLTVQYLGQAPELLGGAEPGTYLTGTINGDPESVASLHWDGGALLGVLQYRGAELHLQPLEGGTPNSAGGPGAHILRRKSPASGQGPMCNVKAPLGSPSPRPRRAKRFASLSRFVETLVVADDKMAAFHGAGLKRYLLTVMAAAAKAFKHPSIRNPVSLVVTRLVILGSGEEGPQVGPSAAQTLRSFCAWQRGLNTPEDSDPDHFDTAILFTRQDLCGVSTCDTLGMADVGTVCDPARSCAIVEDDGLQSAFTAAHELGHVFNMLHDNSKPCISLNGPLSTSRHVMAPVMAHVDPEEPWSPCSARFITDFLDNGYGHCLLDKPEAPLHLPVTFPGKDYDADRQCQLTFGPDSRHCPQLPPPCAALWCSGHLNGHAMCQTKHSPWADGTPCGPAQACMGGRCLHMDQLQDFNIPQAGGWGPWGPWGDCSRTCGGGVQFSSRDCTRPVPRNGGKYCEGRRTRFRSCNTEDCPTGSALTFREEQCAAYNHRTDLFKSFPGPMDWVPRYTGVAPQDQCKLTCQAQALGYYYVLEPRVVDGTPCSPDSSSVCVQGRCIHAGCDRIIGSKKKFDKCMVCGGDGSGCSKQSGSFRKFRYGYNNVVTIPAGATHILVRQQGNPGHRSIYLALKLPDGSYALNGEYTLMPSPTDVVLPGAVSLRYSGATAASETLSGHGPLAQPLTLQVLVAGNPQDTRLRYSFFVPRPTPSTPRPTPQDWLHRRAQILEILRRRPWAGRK
Procedure: Table 1: A FRET (fluorescence resonance energy transfer) peptide was cleaved by recombinant ADAMTS-4 or ADAMTS-5 proteins into two separate fragments resulting in an increase of fluorescence signal which was quantified. The peptide was 5-FAM-TEGEARGSVILLK(5-TAMRA)K-NH2, customized from ANASPEC. ADAMTS-4 recombinant protein (catalog #4307-AD) and ADAMTS-5 recombinant protein (catalog #2198-AD) were purchased from R&D Systems. An assay buffer containing 50 mM HEPES pH 7.5, 100 mM NaCl, 5 mM CaCl2, 0.1% CHAPS and 5% Glycerol was prepared. A volume of 2.5 μl of compound in the assay buffer was dispensed to a 384-well plate, and 2.5 μl of ADAMTS-4 or ADAMTS-5 protein (final concentration in the reaction was 10 nM) was added. The compounds and proteins were pre-incubated at room temperature for 15 minutes. Then, 5 μl of substrate was added to each well. The final substrate concentrations for ADAMTS-4 and ADAMTS-5 were 15 μM and 8 μM, respectively. The fluorescence signal in each well was determined, after incubation at 37° C. for 3 hours, on a TECAN plate reader (Excitation, 490 nm; Emission, 520 nm).

[2] = biological target: T2, A disintegrin and metalloproteinase with thrombospondin motifs 5 (Homo sapiens, UniProt Q9UNA0); test: In Vitro ELISA (Enzyme-Linked Immunosorbent Assay) of ADAMTS-5 Activity
T2 sequence (Q9UNA0 whole entry): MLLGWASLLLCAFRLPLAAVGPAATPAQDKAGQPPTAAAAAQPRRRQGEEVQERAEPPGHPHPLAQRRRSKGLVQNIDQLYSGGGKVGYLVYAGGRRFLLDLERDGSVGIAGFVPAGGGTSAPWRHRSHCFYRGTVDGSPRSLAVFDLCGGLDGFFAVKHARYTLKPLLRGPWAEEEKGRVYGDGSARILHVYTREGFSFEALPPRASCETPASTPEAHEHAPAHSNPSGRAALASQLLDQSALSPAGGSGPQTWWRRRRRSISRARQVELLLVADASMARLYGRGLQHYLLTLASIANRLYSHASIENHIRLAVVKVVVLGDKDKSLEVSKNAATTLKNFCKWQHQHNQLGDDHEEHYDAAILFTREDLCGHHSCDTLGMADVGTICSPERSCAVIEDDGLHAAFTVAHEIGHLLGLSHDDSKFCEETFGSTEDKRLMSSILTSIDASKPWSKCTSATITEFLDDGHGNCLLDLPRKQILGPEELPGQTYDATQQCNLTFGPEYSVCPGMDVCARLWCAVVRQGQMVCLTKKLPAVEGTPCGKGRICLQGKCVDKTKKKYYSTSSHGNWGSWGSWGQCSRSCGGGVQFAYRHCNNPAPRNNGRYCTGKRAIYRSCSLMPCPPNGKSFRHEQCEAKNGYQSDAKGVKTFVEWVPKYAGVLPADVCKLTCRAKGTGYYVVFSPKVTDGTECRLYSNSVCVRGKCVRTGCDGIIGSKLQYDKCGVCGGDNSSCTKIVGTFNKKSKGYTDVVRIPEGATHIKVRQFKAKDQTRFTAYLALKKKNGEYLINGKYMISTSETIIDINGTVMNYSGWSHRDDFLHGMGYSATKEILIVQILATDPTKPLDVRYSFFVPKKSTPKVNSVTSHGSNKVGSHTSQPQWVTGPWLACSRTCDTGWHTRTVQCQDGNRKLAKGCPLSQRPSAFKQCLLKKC
Procedure: Table 2: In this assay, the enzymatic activity of recombinant ADAMTS-5 protein (catalog #2198-AD, R&D Systems) was assayed with a protein substrate, the aggrecan IGD protein. The aggrecan IGD protein is a polypeptide connecting human aggrecan globular domains 1 and 2 (T331-G458) expressed in E. Coli with a C-terminal His-tag (catalog #30411000, BIOTEZ). The enzymatic product ARGSVIL-peptide was detected using an ELISA kit from BioTEZ (catalog #30510111). An assay buffer containing 50 mM HEPES pH 7.5, 100 mM NaCl, 5 mM CaCl2), 0.1% CHAPS and 5% Glycerol was prepared. Recombinant ADAMTS-5 protein was diluted to 0.3 nM in the assay buffer. […] and 10 μl of compound solution was transferred to each well of a 96-well plate and incubated at room temperature for 15 minutes. Substrate aggrecan-IGD was diluted to 100 nM with the assay buffer and 20 μl was added to each well. The plate was incubated at 37° C. for 45 minutes. After incubation, the newly generated epitope ARGSVIL-peptides were measured using the Aggrecanase Activity ELISA Assay Kit following the manufacturer's instructions. Then, 100 μl of stop solution was added and the absorbance of each well was read at 450 nm, using […] as reference on a TECAN plate reader.

IC50 [1]: 20 nM
IC50 [2]: 26 nM and 83 nM
Structure (SMILES): CC(C[C@@]1(C2CC2)NC(=O)NC1=O)C(=O)N1Cc2cc(Cl)c(Cl)cc2C1C (some centres not stated) [US20240299360, Example 70]
